Experimental data published in US12479816B2, “20-HETE formation inhibitors” (UNIVERSITY OF PITTSBURGH—OF THE COMMONWEALTH SYSTEM OF …, priority 2019, dated 2025).

Test system: 20-HETE formation (CYP4) in HLM
Experiment: Inhibition of 20-HETE formation at 250 or 500 nM in HLM microsomal incubations
Format: biochemical, human
Conditions: 500 nM compound; HLM 300 μg/ml, AA 100 μM, 20 min
In short: (§1)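 Protein 300 μg/ml (microsomes) / 25 pmol/mL (rCYP4F2); AA 100 μM; NADPH 1 mM start; KPi 0.12 M + 5 mM MgCl2; 20 min, 37° C. Read-out: 20-HETE by UPLC-MS/MS (d6 IS), % of vehicle, n=3.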

Row | HLM % inh. @ 500 nM [%] | SMILES
1 | 46.00 | Cc1ccccc1C1CCN(c2cn[nH]c2)CC1 [Compound 36, 1-(1H-Pyrazol-4-yl)-4-(o-tolyl)piperidine]
2 | 83.1 | O=C(c1ccc(C2CCN(c3cn[nH]c3)CC2)c(F)c1)N1CCCC1 [Compound 81, (4-(1-(1H-Pyrazol-4-yl)piperidin-4-yl)-3-fluorophenyl)(pyrrolidin-1-yl)methanone]

The next lines start with the molecule.

Row | SMILES | HLM % inh. @ 500 nM [%]
3 | CC(=O)Nc1ccc(C2CCN(c3ccn[nH]3)CC2)cc1 [Compound 29, N-(4-(1-(1H-Pyrazol-5-yl)piperidin-4-yl)phenyl)acetamide] | 60.00
4 | COc1ccc(C2CCN(c3cn[nH]c3)CC2)cn1 [Compound 32, 5-(1-(1H-Pyrazol-4-yl)piperidin-4-yl)-2-methoxypyridine] | 59.00
5 | Cc1cccc(C2CCN(c3ccn[nH]3)CC2)c1 [Compound 33, 1-(1H-Pyrazol-5-yl)-4-(m-tolyl)piperidine] | 72.00

Test system: 20-HETE formation (CYP4) in HLM
Experiment: IC50 determination, 20-HETE formation in HLM
Format: biochemical, human
Conditions: HLM 300 μg/ml, AA 100 μM, 12 concentrations
Procedure: Microsomal incubations contained HLM, RLM (300 μg/ml), AA (100 μM), NADPH (1 mM) and test compounds at 12 concentrations (0.1 nM-50 μM) in a 1 ml total volume in microsomal incubation buffer (0.12 M potassium phosphate buffer containing 5 mM magnesium chloride). Reaction was started by adding NADPH to the incubates and was carried out at 37° C. in a shaking water bath for 20 min. Reaction was stopped by placing tubes on ice, followed by adding 12.5 μl 20-HETE-d6 as internal standard to each sample. Microsomal incubations were extracted with 3 ml ethyl ether twice, dried down under nitrogen gas and reconstituted in 125 μl 80:20 methanol:deionized H2O for analysis. 20-HETE formation was quantified using the validated UPLC-MS/MS assay described above and normalized by vehicle group. HET0016 (250 nM) was used as positive control. Incubates without NADPH group served as the negative control. IC50 was determined by fitting the dose-response curve using Graphpad Prism nonlinear regression.

Row | IC50 [µM] | SMILES
6 | 0.65 | Cc1ccccc1C1CCN(c2cn[nH]c2)CC1 [Compound 36, 1-(1H-Pyrazol-4-yl)-4-(o-tolyl)piperidine]
7 | 0.0474 | O=C(c1ccc(C2CCN(c3cn[nH]c3)CC2)c(F)c1)N1CCCC1 [Compound 81, (4-(1-(1H-Pyrazol-4-yl)piperidin-4-yl)-3-fluorophenyl)(pyrrolidin-1-yl)methanone]

The remaining lines, values behind:

Row | SMILES | IC50 [µM]
8 | CC(=O)Nc1ccc(C2CCN(c3ccn[nH]3)CC2)cc1 [Compound 29, N-(4-(1-(1H-Pyrazol-5-yl)piperidin-4-yl)phenyl)acetamide] | 0.17
9 | COc1ccc(C2CCN(c3cn[nH]c3)CC2)cn1 [Compound 32, 5-(1-(1H-Pyrazol-4-yl)piperidin-4-yl)-2-methoxypyridine] | 0.13
10 | Cc1cccc(C2CCN(c3ccn[nH]3)CC2)c1 [Compound 33, 1-(1H-Pyrazol-5-yl)-4-(m-tolyl)piperidine] | 0.18

Target: T1, rCYP4F2 (Homo sapiens, UniProt P78329)
T1 sequence (P78329 5-520): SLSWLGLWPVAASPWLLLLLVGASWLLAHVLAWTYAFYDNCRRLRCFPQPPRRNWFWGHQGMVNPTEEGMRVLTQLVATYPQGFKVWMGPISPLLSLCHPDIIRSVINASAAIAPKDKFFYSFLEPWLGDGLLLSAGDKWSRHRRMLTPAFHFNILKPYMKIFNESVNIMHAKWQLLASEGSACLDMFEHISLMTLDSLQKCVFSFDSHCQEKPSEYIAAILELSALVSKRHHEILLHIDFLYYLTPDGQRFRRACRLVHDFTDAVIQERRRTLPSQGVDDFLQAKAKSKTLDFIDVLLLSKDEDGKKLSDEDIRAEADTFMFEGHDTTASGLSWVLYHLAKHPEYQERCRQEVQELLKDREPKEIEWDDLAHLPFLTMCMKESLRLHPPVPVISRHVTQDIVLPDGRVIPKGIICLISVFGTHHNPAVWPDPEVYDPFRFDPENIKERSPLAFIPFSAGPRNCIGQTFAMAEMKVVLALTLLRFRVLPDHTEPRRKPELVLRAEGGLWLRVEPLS
Experiment: Inhibition of 20-HETE formation at 250 or 500 nM in rCYP4F2 incubations
Format: biochemical
Conditions: 500 nM compound; rCYP4F2 25 pmol/mL; read-out: rCYP4F2 % inh. @ 500 nM
In short: as §1

Row | inhibition at 0.5 µM [%] | SMILES
11 | 61 | Cc1ccccc1C1CCN(c2cn[nH]c2)CC1 [Compound 36, 1-(1H-Pyrazol-4-yl)-4-(o-tolyl)piperidine]
12 | 66 | O=C(c1ccc(C2CCN(c3cn[nH]c3)CC2)c(F)c1)N1CCCC1 [Compound 81, (4-(1-(1H-Pyrazol-4-yl)piperidin-4-yl)-3-fluorophenyl)(pyrrolidin-1-yl)methanone]

Further lines, the molecule ahead of its results:

Row | SMILES | inhibition at 0.5 µM [%]
13 | CC(=O)Nc1ccc(C2CCN(c3ccn[nH]3)CC2)cc1 [Compound 29, N-(4-(1-(1H-Pyrazol-5-yl)piperidin-4-yl)phenyl)acetamide] | 55
14 | COc1ccc(C2CCN(c3cn[nH]c3)CC2)cn1 [Compound 32, 5-(1-(1H-Pyrazol-4-yl)piperidin-4-yl)-2-methoxypyridine] | 67
15 | Cc1cccc(C2CCN(c3ccn[nH]3)CC2)c1 [Compound 33, 1-(1H-Pyrazol-5-yl)-4-(m-tolyl)piperidine] | 69

Test system: 20-HETE formation (CYP4) in RKM
Experiment: Inhibition of 20-HETE formation at 250 or 500 nM in RKM microsomal incubations
Format: biochemical, rat
Conditions: 500 nM compound; RKM 300 μg/ml
Procedure: To screen the inhibitory effects against 20-HETE formation, compounds were screened in HLM, RLM, RKM and rCYP4F2 microsomal incubations. Compounds dissolved in either 100% methanol or 100% DMSO to yield 10 mM stock solution. Microsomal incubations containing HLM, RLM, RKM (300 μg/ml) or rCYP4F2 (25 pmol/mL), AA (100 μM), NADPH (1 mM) treated with test compounds at various concentrations (500 nM or 250 nM) in a 1 ml total volume in incubation buffer (0.12 M potassium phosphate buffer containing 5 mM magnesium chloride). Reaction was started by adding NADPH to the incubates and was carried out at 37° C. in a shaking water bath for 20 min. Reaction was stopped by placing tubes on ice, followed by adding 125 μl 20-HETE-d6 as internal standard to each sample. Microsomal incubations were extracted with 3 ml ethyl ether twice, dried down under nitrogen gas and reconstituted in 125 μl 80:20 methanol:deionized H2O for analysis. 20-HETE formation was quantified using a validated UPLC-MS/MS assay and normalized by vehicle group. Each compound had three replications (n=3). Vehicle group was used as control to calculate percentage of 20-HETE formation rate. HET0016 (250 nM) was used as positive control. Incubates without NADPH group served as the negative control. An Acquity ultra performance LC autosampler (Waters, Milford, MA) was used to isolate 20-HETE on an UPLC BEH C18, 1.7 μm (2.1×100 mm) reversed-phase column (Waters, Milford, MA) protected by a guard column (2.1×5 mm; Waters, Milford, MA) of the same packing material. Column temperature was maintained at 55° C. Mobile phases consisted of 0.005% acetic acid, 5% acetonitrile in deionized water (A) and 0.005% acetic acid in acetonitrile (B). The flow rate for mobile phases is 0.5 ml/min. The initial mixture of mobile phase was 65:35 of A and B. Mobile phase B increased at 0.4 minutes after injection from 35% to 70% in a linear gradient over 4 minutes, and again increased to 95% over 0.5 minutes where it remained for 0.3 minutes. This was followed by a linear return to initial conditions over 0.1 minutes with a 1.5 minute pre-equilibration period prior to the next sample run. Total run time was 6.4 minutes for each injection. Injection volumes were 7.5 μl. Mass spectrometric analysis was carried out using a TSQ Quantum Ultra (Thermo Fisher Scientific, San Jose, CA) triple quadrupole mass spectrometer using heated electrospray ionization (HESI). Mass spectrometer was operated in negative selective reaction monitoring (SRM) mode with unit resolutions at both Q1 and Q3 set at 0.70 Da full width at half maximum. Scan time was set at 0.01 s and collision gas pressure was 1.3 mTorr. Quantitation of 20-HETE by SRM was performed by monitoring the m/z. Analytical data was acquired and analyzed using Xcaliber 3.0 data system (ThermoFinnigan, San Jose, CA).

Row | SMILES | RKM % inh. @ 500 nM [%]
16 | CC(=O)Nc1ccc(C2CCN(c3ccn[nH]3)CC2)cc1 [Compound 29, N-(4-(1-(1H-Pyrazol-5-yl)piperidin-4-yl)phenyl)acetamide] | 7.00
17 | COc1ccc(C2CCN(c3cn[nH]c3)CC2)cn1 [Compound 32, 5-(1-(1H-Pyrazol-4-yl)piperidin-4-yl)-2-methoxypyridine] | 25.00
18 | Cc1cccc(C2CCN(c3ccn[nH]3)CC2)c1 [Compound 33, 1-(1H-Pyrazol-5-yl)-4-(m-tolyl)piperidine] | 16.00
19 | Cc1ccccc1C1CCN(c2cn[nH]c2)CC1 [Compound 36, 1-(1H-Pyrazol-4-yl)-4-(o-tolyl)piperidine] | 4.00

Test system: 20-HETE formation (CYP4) in RLM
Experiment: Inhibition of 20-HETE formation at 250 or 500 nM in RLM microsomal incubations
Format: biochemical, rat
Conditions: 500 nM compound; RLM 300 μg/ml
In short: as §1

Row | RLM % inh. @ 500 nM [%] | SMILES
20 | 0.00 | Cc1ccccc1C1CCN(c2cn[nH]c2)CC1 [Compound 36, 1-(1H-Pyrazol-4-yl)-4-(o-tolyl)piperidine]
21 | 19.30 | O=C(c1ccc(C2CCN(c3cn[nH]c3)CC2)c(F)c1)N1CCCC1 [Compound 81, (4-(1-(1H-Pyrazol-4-yl)piperidin-4-yl)-3-fluorophenyl)(pyrrolidin-1-yl)methanone]

Further lines, the molecule ahead of its results:

Row | SMILES | RLM % inh. @ 500 nM [%]
22 | CC(=O)Nc1ccc(C2CCN(c3ccn[nH]3)CC2)cc1 [Compound 29, N-(4-(1-(1H-Pyrazol-5-yl)piperidin-4-yl)phenyl)acetamide] | 38.00
23 | COc1ccc(C2CCN(c3cn[nH]c3)CC2)cn1 [Compound 32, 5-(1-(1H-Pyrazol-4-yl)piperidin-4-yl)-2-methoxypyridine] | 0.00
24 | Cc1cccc(C2CCN(c3ccn[nH]3)CC2)c1 [Compound 33, 1-(1H-Pyrazol-5-yl)-4-(m-tolyl)piperidine] | 12.00

Test system: not listed separately
Experiment: Turbidometric solubility determination
Format: physicochemical
Conditions: PBS with 1% DMSO, aqueous buffer, kinetic from dmso stock, room temperature, OD620, read-out: Max Solub
In short: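 Precipitation was detected as a significant rise in absorbance at 620 nm over background, and this point set the maximum solubility. Compound was tested in PBS with 1% DMSO at final concentrations from 0 to 600 μM, in triplicate, after 2 h of shaking at room temperature.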

Row | solubility at 2 h [µM] | SMILES
25 | 752 | Cc1ccccc1C1CCN(c2cn[nH]c2)CC1 [Compound 36, 1-(1H-Pyrazol-4-yl)-4-(o-tolyl)piperidine]
26 | 353 | O=C(c1ccc(C2CCN(c3cn[nH]c3)CC2)c(F)c1)N1CCCC1 [Compound 81, (4-(1-(1H-Pyrazol-4-yl)piperidin-4-yl)-3-fluorophenyl)(pyrrolidin-1-yl)methanone]

More lines, now with the values behind:

Row | SMILES | solubility at 2 h [µM]
27 | CC(=O)Nc1ccc(C2CCN(c3ccn[nH]3)CC2)cc1 [Compound 29, N-(4-(1-(1H-Pyrazol-5-yl)piperidin-4-yl)phenyl)acetamide] | > 600
28 | COc1ccc(C2CCN(c3cn[nH]c3)CC2)cn1 [Compound 32, 5-(1-(1H-Pyrazol-4-yl)piperidin-4-yl)-2-methoxypyridine] | 391

Same assay, conditions: PBS with 1% DMSO, aqueous buffer, kinetic from dmso stock, room temperature, read-out: Solubility_ug/mL

Row | SMILES | solubility at 2 h [µg/mL]
29 | CC(=O)Nc1ccc(C2CCN(c3ccn[nH]3)CC2)cc1 [Compound 29, N-(4-(1-(1H-Pyrazol-5-yl)piperidin-4-yl)phenyl)acetamide] | 171
30 | COc1ccc(C2CCN(c3cn[nH]c3)CC2)cn1 [Compound 32, 5-(1-(1H-Pyrazol-4-yl)piperidin-4-yl)-2-methoxypyridine] | 101
